According to US20240391862A1, “(1,4,5-TRISUBSTITUTED-1H-PYRAZOL-3-YL)OXY-2-ALKOXY ALKYL ACIDS AND THEIR DERIVATIVES, THEIR SALTS AND THEIR USE AS HERBICIDAL AGENTS” (Bayer AKtiengesellschaft, priority 2021, published 2024):

Assays:
ZEAMX = test: Post-emergence herbicidal effect and crop plant compatibility, greenhouse pot test; type: in vivo, Zea mays; conditions: one-leaf stage, rated visually after about 3 weeks vs untreated controls; for plant injury at 80 g/ha: read-out: Post-emergence effect at 80 g/ha against ZEAMX in %
How it was run: (§1)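 Visual % activity scored roughly 3 weeks post-spray against untreated plants, where 100% means death and 0% equals control. Plants were treated at the one-leaf stage, 2 to 3 weeks after sowing in sandy loam, at 20 to 320 g/ha.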

TRZAS = test: as above; type: in vivo, Triticum aestivum; conditions: Triticum aestivum, 504 h, 20 g/ha, one-leaf stage, rated visually after about 3 weeks vs untreated controls, read-out: Post-emergence effect at 20 g/ha against TRZAS in %
How it was run: as §1

ABUTH = test: Post-emergence herbicidal effect, greenhouse pot test; type: in vivo, Abutilon theophrasti; conditions: visual rating about 3 weeks after treatment
How it was run: (§2)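 Greenhouse pot plants in sandy loam receive a one-leaf-stage spray at 20 to 320 g/ha. Activity is assessed visually around 3 weeks afterwards on a 0–100% scale, where 100% means the plants have died.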

ALOMY = test: as above; type: in vivo, Alopecurus myosuroides; conditions: 320 g/ha, visual rating about 3 weeks after treatment
How it was run: as §2

AVEFA = test: as above; type: in vivo, Avena fatua; conditions: visual rating about 3 weeks after treatment
How it was run: as §2

DIGSA = test: as above; type: in vivo, Digitaria sanguinalis; conditions: visual rating about 3 weeks after treatment
How it was run: as §2

ECHCG = test: as above; type: in vivo, Echinochloa crus-galli
How it was run: as §2

LOLRI = test: as above; type: in vivo, Lolium rigidum
How it was run: as §2

PHBPU = test: as above; type: in vivo, Ipomoea purpurea
How it was run: as §2

POLCO = test: as above; type: in vivo, Fallopia convolvulus
How it was run: as §2

SETVI = test: as above; type: in vivo, Setaria viridis
How it was run: as §2

VERPE = test: as above; type: in vivo, Veronica persica; conditions: 320 g/ha
How it was run: as §2

VIOTR = test: as above; type: in vivo, Viola tricolor
How it was run: as §2

KCHSC = test: as above; type: in vivo
How it was run: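 Visual rating of activity against untreated plants (100% = plants died, 0% = no effect), done about 3 weeks after treatment. Compounds applied at 20–320 g/ha as aqueous spray (600 l/ha, 0.5% additive) from WP or EC formulations onto one-leaf-stage plants grown in sandy loam under greenhouse conditions.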

AMARE = test: as above; type: in vivo, Amaranthus retroflexus; conditions: 320 g/ha, visual rating about 3 weeks after treatment
How it was run: as §2

[1] = 504 h, 320 g/ha, read-out: Post-emergence effect against KCHSC in %

CCOC(=O)C(OC)Oc1nn(-c2ncccc2F)c(-c2ccc(F)nc2)c1C(F)(F)F (stereo not shown) [Example I-55]
plant injury at 20 g/ha (ZEAMX; Zea mays, 504 h, 20 g/ha, read-out: Post-emergence effect at 20 g/ha against ZEAMX in %): 0% | plant injury at 80 g/ha (ZEAMX; Zea mays, 504 h, 80 g/ha): 0% | percent crop injury (phytotoxicity) to wheat, post-emergence at 20 g/ha (TRZAS): 20% | pest or weed control at 80 g/ha (ABUTH; Abutilon theophrasti, 504 h, 80 g/ha, read-out: Post-emergence effect against ABUTH): 80% | pest or weed control at 320 g/ha (ABUTH; Abutilon theophrasti, 504 h, 320 g/ha, read-out: Post-emergence effect against ABUTH): 90% | pest or weed control at 320 g/ha (ALOMY; Alopecurus myosuroides, 504 h, read-out: Post-emergence effect against ALOMY): 90% | pest or weed control at 80 g/ha (AVEFA; Avena fatua, 504 h, 80 g/ha, read-out: Post-emergence effect against AVEFA): 90% | pest or weed control at 320 g/ha (AVEFA; Avena fatua, 504 h, 320 g/ha, read-out: Post-emergence effect against AVEFA): 90% | pest or weed control at 80 g/ha (DIGSA; Digitaria sanguinalis, 504 h, 80 g/ha, read-out: Post-emergence effect against DIGSA): 90% | pest or weed control at 320 g/ha (DIGSA; Digitaria sanguinalis, 504 h, 320 g/ha, read-out: Post-emergence effect against DIGSA): 90% | pest or weed control at 80 g/ha (ECHCG; Echinochloa crus-galli, 504 h, 80 g/ha, read-out: Post-emergence effect against ECHCG in %): 90% | pest or weed control at 320 g/ha (ECHCG; Echinochloa crus-galli, 504 h, 320 g/ha, read-out: Post-emergence effect against ECHCG in %): 90% | pest or weed control at 320 g/ha (LOLRI; Lolium rigidum, 504 h, 320 g/ha, read-out: Post-emergence effect against LOLRI in %): 90% | pest or weed control at 20 g/ha (PHBPU; Ipomoea purpurea, 504 h, 20 g/ha, read-out: Post-emergence effect against PHBPU in %): 80% | pest or weed control at 80 g/ha (PHBPU; Ipomoea purpurea, 504 h, 80 g/ha, read-out: Post-emergence effect against PHBPU in %): 80% | pest or weed control at 320 g/ha (PHBPU; Ipomoea purpurea, 504 h, 320 g/ha, read-out: Post-emergence effect against PHBPU in %): 90% | pest or weed control at 80 g/ha (POLCO; Fallopia convolvulus, 504 h, 80 g/ha, read-out: Post-emergence effect against POLCO in %): 80% | pest or weed control at 320 g/ha (POLCO; Fallopia convolvulus, 504 h, 320 g/ha, read-out: Post-emergence effect against POLCO in %): 90% | pest or weed control at 320 g/ha (SETVI; Setaria viridis, 504 h, 320 g/ha, read-out: Post-emergence effect against SETVI in %): 80% | pest or weed control at 320 g/ha (VERPE; Veronica persica, 504 h, read-out: Post-emergence effect against VERPE in %): 90% | pest or weed control at 80 g/ha (VIOTR; Viola tricolor, 504 h, 80 g/ha, read-out: Post-emergence effect against VIOTR in %): 80% | pest or weed control at 320 g/ha (VIOTR; Viola tricolor, 504 h, 320 g/ha, read-out: Post-emergence effect against VIOTR in %): 90% | pest or weed control at 80 g/ha (KCHSC; 504 h, 80 g/ha, read-out: Post-emergence effect against KCHSC in %): 90% | pest or weed control at 320 g/ha (KCHSC; [1]): 90%

COC(Oc1nn(-c2ncccc2F)c(-c2cncc(F)c2)c1C1CC1)C(=O)O (stereo not shown) [Example I-85]
Post-emergence effect at 20 g/ha against ZEAMX in % (ZEAMX; 20 g/ha): 0% | plant injury at 80 g/ha (ZEAMX; Zea mays, 504 h, 80 g/ha): 20% | percent crop injury (phytotoxicity) to wheat, post-emergence at 20 g/ha (TRZAS): 0% | Post-emergence effect against ABUTH (ABUTH; 80 g/ha): 80% | Post-emergence effect against ABUTH (ABUTH; 320 g/ha): 90% | Post-emergence effect against ALOMY (ALOMY): 90% | Post-emergence effect against AMARE (AMARE): 80% | Post-emergence effect against AVEFA (AVEFA; 80 g/ha): 90% | Post-emergence effect against AVEFA (AVEFA; 320 g/ha): 90% | Post-emergence effect against DIGSA (DIGSA; 320 g/ha): 90% | Post-emergence effect against ECHCG (ECHCG; 20 g/ha, visual rating about 3 weeks after treatment): 90% | Post-emergence effect against ECHCG in % (ECHCG; 80 g/ha): 90% | Post-emergence effect against ECHCG in % (ECHCG; 320 g/ha): 90% | Post-emergence effect against LOLRI in % (LOLRI; 80 g/ha): 80% | Post-emergence effect against LOLRI in % (LOLRI; 320 g/ha): 90% | Post-emergence effect against PHBPU in % (PHBPU; 20 g/ha): 80% | Post-emergence effect against PHBPU in % (PHBPU; 80 g/ha): 90% | Post-emergence effect against PHBPU in % (PHBPU; 320 g/ha): 90% | Post-emergence effect against POLCO in % (POLCO; 80 g/ha): 90% | Post-emergence effect against POLCO in % (POLCO; 320 g/ha): 90% | pest or weed control at 20 g/ha (POLCO; Fallopia convolvulus, 504 h, 20 g/ha, read-out: Post-emergence effect against POLCO in %): 80% | Post-emergence effect against SETVI in % (SETVI; 80 g/ha): 90% | Post-emergence effect against SETVI in % (SETVI; 320 g/ha): 90% | Post-emergence effect against VERPE in % (VERPE): 90% | Post-emergence effect against VIOTR in % (VIOTR; 80 g/ha): 80% | Post-emergence effect against VIOTR in % (VIOTR; 320 g/ha): 90% | Post-emergence effect against KCHSC in % (KCHSC; 80 g/ha): 90% | Post-emergence effect against KCHSC in % (KCHSC; 320 g/ha): 90%

COC(=O)C(OC)Oc1nn(-c2ncccc2F)c(-c2ccc(F)nc2)c1C1CC1 (stereo not shown) [Example I-107]
Post-emergence effect at 20 g/ha against ZEAMX in % (ZEAMX; 20 g/ha): 0% | Post-emergence effect at 80 g/ha against ZEAMX in % (ZEAMX; 80 g/ha): 0% | percent crop injury (phytotoxicity) to wheat, post-emergence at 20 g/ha (TRZAS): 20% | Post-emergence effect against ABUTH (ABUTH; 320 g/ha): 80% | Post-emergence effect against ALOMY (ALOMY): 100% | Post-emergence effect against AMARE (AMARE): 80% | Post-emergence effect against AVEFA (AVEFA; 320 g/ha): 90% | Post-emergence effect against DIGSA (DIGSA; 320 g/ha): 80% | Post-emergence effect against ECHCG in % (ECHCG; 320 g/ha): 90% | Post-emergence effect against LOLRI in % (LOLRI; 320 g/ha): 90% | Post-emergence effect against PHBPU in % (PHBPU; 80 g/ha): 80% | Post-emergence effect against PHBPU in % (PHBPU; 320 g/ha): 80% | Post-emergence effect against POLCO in % (POLCO; 80 g/ha): 90% | Post-emergence effect against POLCO in % (POLCO; 320 g/ha): 90% | Post-emergence effect against SETVI in % (SETVI; 320 g/ha): 90% | Post-emergence effect against VERPE in % (VERPE): 80% | Post-emergence effect against VIOTR in % (VIOTR; 320 g/ha): 90% | pest or weed control at 320 g/ha (KCHSC; [1]): 90%
